Laboratory results reported in patent US11147772B2, “Timed, pulsatile release systems” (Adare Pharmaceuticals, Inc., priority 2005, dated 2021).
Structures can show the parent of a compound that is named as a salt.

What was measured:
[1] = Drug release (dissolution) testing of TPR beads in two-stage medium, lag-time; type: physicochemical; conditions: expected from higher alkalinity, given coating conditions
Description: Dissolution testing of IR beads and enteric coated beads (for acid resistance testing) is conducted with a USP Apparatus 1 (baskets at 100 rpm) or Apparatus 2 (paddles at 50 rpm) in 900 mL of 0.1N HCl at 37° C. while the dissolution testing of TPR beads is conducted in a USP apparatus using a two-stage dissolution medium (first 2 hours in 700 mL of 0.1N HCl at 37° C. followed by dissolution testing at pH=6.8 obtained by the addition of 200 mL of pH modifier). Drug release with time is determined by HPLC on samples pulled at selected intervals.
Drug Release Testing: The drug release profiles were generated by dissolution testing per US Pharmacopoeia method (Apparatus 1 with baskets at 100 rpm or Apparatus 2 with paddles at 50 rpm) using 700 mL of p H 1.2 buffer for 2 hours followed by testing in 900 mL of pH 6.8 for the remaining time-points). The IR and enteric-coated beads were tested in 900 mL of 0.1N HCl for 1 and 1.5 hrs, respectively. The samples pulled at different time-points were quantified by HPLC.

[2] = pH of representative drugs suspended in water; type: physicochemical; conditions: for pH when suspended in purified water (range over the concentrations of Table 1): range over tested solid contents; for Acidity/Alkalinity: drug suspended in water
[3] = drug concentration (solid content) 0.1 mg/mL in water
[4] = drug concentration (solid content) 1.0 mg/mL in water
[5] = drug concentration (solid content) 10 mg/mL in water
[6] = drug concentration (solid content) 0.2 mg/mL in water
[7] = drug concentration (solid content) 2.0 mg/mL in water
[8] = drug concentration (solid content) 20 mg/mL in water

Row | lag time relative to nizatidine [1] | pH of Solution/Suspension [2, 3] | pH of Solution/Suspension [2, 4] | pH of Solution/Suspension [2, 5] | pH when suspended in purified water (range over the concentrations of Table 1) [2] | pH of Solution/Suspension [2, 6] | pH of Solution/Suspension [2, 7] | pH of Solution/Suspension [2, 8] | SMILES | Acidity/Alkalinity [2]
1 | shorter lag time than nizatidine | pH = 7.9 | pH = 10.9 | pH = 11.0 | 7.9-11.0 | – | – | – | CC(C)NCC(O)COc1ccc(CC(N)=O)cc1 (stereo not shown) [Atenolol] | –
2 | – | pH = 6.1 | pH = 6.5 | pH = 6.7 | – | – | – | – | CN(C)CCC=C1c2ccccc2C=Cc2ccccc21 [Cyclobenzaprine Hydrochloride] | Acidic (exhibiting a pH of 7.0, or less, when suspended in water at a solid content of 2 mg/mL is designated as an acidic drug)
3 | – | – | – | – | 6.5-8.7 | pH = 6.5 | pH = 7.4 | pH = 8.7 | CNC(=C[N+](=O)[O-])NCCSCc1csc(CN(C)C)n1 [Nizatidine] | Alkaline (an API exhibiting a pH of 7.0, or greater, is designated as an alkaline drug)
4 | – | – | – | – | 5.7-6.5 | pH = 5.7 | pH = 6.0 | pH = 6.5 | CC(C)NCC(O)COc1cccc2ccccc12 (stereo not shown) [Propranolol Hydrochloride] | Acidic (exhibiting a pH of 7.0, or less, when suspended in water at a solid content of 2 mg/mL is designated as an acidic drug)
